Data published in patent US9416129B2, “Tricyclic substituted thiadiazine dioxide compounds as BACE inhibitors, compositions and their use” (Merck Sharp & Dohme Corp., priority 2012, dated 2016).

Legend:
[1] = molecular target: soluble human BACE1 catalytic domain (Homo sapiens (Human), UniProt P56817); assay: BACE1 HTRF FRET assay; format: biochemical; settings: Ki calculated from IC50 using the Cheng-Prusoff equation
From the text: Na^+-Acetate pH 5.0; 1% Brij-35; Glycerol; Dimethyl Sulfoxide (DMSO); Recombinant human soluble BACE1 catalytic domain (>95% pure); APP Swedish mutant peptide substrate (QSY7-APP^swe-Eu): QSY7-[…]-Europium-amide.
A homogeneous time-resolved FRET assay can be used to determine IC50 values for inhibitors of the soluble human BACE1 catalytic domain. This assay monitors the increase of 620 nm fluorescence that resulted from BACE1 cleavage of an APPswedish APP^swe mutant peptide FRET substrate (QSY7-[…]-Europium-amide). This substrate contains an N-terminal QSY7 moiety that serves as a quencher of the C-terminal Europium fluorophore (620 nm Em). In the absence of enzyme activity, 620 nm fluorescence is low in the assay and increased linearly over 3 hours in the presence of uninhibited BACE1 enzyme Inhibition of BACE1 cleavage of the QSY7-APP^swe-Eu substrate by inhibitors is manifested as a suppression of 620 nm fluorescence.
Varying concentrations of inhibitors at 3× the final desired concentration in a volume of 10 ul are preincubated with purified human BACE1 catalytic domain (3 nM in 10 μl) for 30 minutes at 30° C. in reaction buffer containing 20 mM Na-Acetate pH 5.0, 10% glycerol, 0.1% Brij-35 and 7.5% DSMO. Reactions are initiated by addition of 10 μl of 600 nM QSY7-APP^swe-Eu substrate (200 nM final) to give a final reaction volume of […] in a 384 well Nunc HTRF plate. The reactions are incubated at 30° C. for 1.5 hours. The 620 nm fluorescence is then read on a Rubystar HTRF plate reader (BMG Labtechnologies) using a 50 millisecond delay followed by a 400 millisecond acquisition time window. Inhibitor IC50 values are derived from non-linear regression analysis of concentration response curves.

human autoBACE-2 = human autoBACE-2 (Homo sapiens (Human), UniProt Q9Y5Z0); assay: BACE-2 assay (BACE-HTRF, time-resolved endpoint proteolysis); format: biochemical; settings: Ki calculated from IC50 using the Cheng-Prusoff equation; read-out: BACE2 Ki
Method: Inhibitor IC50s at purified human autoBACE-2 are determined in a time-resolved endpoint proteolysis assay that measures hydrolysis of the QSY7-[…]-Eu-amide FRET peptide substrate (BACE-HTRF assay). […] DMSO is present at 5% final concentration in the assay. Following laser excitation of sample wells at 320 nm, the fluorescence signal at 620 nm is collected for 400 ms following a 50 μs delay on a RUBYstar HTRF plate reader (BMG Labtechnologies). Raw RFU data is normalized to maximum (1.0 nM BACE/DMSO) and minimum (no enzyme/DMSO) RFU values. […] The Ki values are calculated from the IC50 using the Cheng-Prusoff equation.

soluble human BACE1 catalytic domain, sequence (P56817 75-416): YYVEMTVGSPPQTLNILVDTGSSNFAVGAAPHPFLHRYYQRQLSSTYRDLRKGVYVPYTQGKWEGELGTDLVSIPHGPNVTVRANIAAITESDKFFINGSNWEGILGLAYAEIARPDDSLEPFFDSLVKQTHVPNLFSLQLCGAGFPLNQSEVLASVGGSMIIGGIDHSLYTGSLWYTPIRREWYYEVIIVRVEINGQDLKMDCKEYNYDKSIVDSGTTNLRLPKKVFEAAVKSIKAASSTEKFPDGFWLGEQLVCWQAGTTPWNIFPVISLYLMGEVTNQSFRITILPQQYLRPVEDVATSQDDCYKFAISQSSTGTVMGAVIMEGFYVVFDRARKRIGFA
human autoBACE-2, sequence (Q9Y5Z0 63-473 limits assumed): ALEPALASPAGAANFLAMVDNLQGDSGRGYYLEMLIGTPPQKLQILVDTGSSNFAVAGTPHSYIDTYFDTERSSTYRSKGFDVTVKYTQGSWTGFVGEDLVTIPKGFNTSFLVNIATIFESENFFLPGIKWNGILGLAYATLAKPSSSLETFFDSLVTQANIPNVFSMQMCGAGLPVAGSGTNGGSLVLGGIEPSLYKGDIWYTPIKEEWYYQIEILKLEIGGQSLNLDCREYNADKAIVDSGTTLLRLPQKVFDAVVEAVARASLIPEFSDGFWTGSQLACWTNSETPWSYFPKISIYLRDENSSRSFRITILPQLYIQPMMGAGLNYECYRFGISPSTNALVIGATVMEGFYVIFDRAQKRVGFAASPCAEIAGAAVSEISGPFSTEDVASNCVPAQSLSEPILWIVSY

CN1C(=N)N[C@](C)(c2sc(-c3cccc(-c4nnco4)c3)cc2Cl)CS1(=O)=O [Example 1]
Ki [1]: 1.6 nM
Ki (human autoBACE-2): 6 nM

CN1C(=N)N[C@](C)(c2sc(-c3cccc(-c4nnco4)c3)cc2F)CS1(=O)=O [Example 2]
Ki [1]: 1.7 nM
Ki (human autoBACE-2): 13.8 nM

CN1C(=N)N[C@](C)(c2sc(-c3cncc(-c4nnco4)c3)cc2F)CS1(=O)=O [Example 3]
Ki [1]: 7.5 nM
Ki (human autoBACE-2): 25.9 nM

CN1C(=N)N[C@](C)(c2sc(-c3cccc(-c4cc[nH]n4)c3)cc2F)CS1(=O)=O [Example 4]
Ki [1]: 10.7 nM
Ki (human autoBACE-2): 0.35 nM

CN1C(=N)N[C@](C)(c2sc(-c3cncc(-c4ncco4)c3)cc2Cl)CS1(=O)=O [Example 9]
Ki [1]: 6.9 nM
Ki (human autoBACE-2): 0.31 nM

CN1C(=N)N[C@](C)(c2sc(-c3cncc(-c4ncco4)c3)cc2F)CS1(=O)=O [Example 10]
Ki [1]: 15.7 nM
Ki (human autoBACE-2): 1 nM

CN1C(=N)N[C@](C)(c2sc(-c3cccc(-c4ccno4)c3)cc2Cl)CS1(=O)=O [Example 13]
Ki [1]: 6.5 nM
Ki (human autoBACE-2): 2.4 nM

Cc1nnc(-c2cccc(-c3cc(Cl)c([C@]4(C)CS(=O)(=O)N(C)C(=N)N4)s3)c2)o1 [Example 15]
Ki (human autoBACE-2): 3.8 nM

Cc1nnc(-c2cccc(-c3cc(F)c([C@]4(C)CS(=O)(=O)N(C)C(=N)N4)s3)c2)o1 [Example 16]
Ki [1]: 232 nM
Ki (human autoBACE-2): 4.2 nM

CN1C(=N)N[C@](C)(c2cc(-c3cccc(-c4nnco4)c3)cs2)CS1(=O)=O [Example 19]
Ki [1]: 19.2 nM
Ki (human autoBACE-2): 52 nM

CN1C(=N)N[C@](C)(c2sc(-c3cncc(-c4cnco4)c3)cc2Cl)CS1(=O)=O [Example 20]
Ki [1]: 11.9 nM
Ki (human autoBACE-2): 8.9 nM

CN1C(=N)N[C@](C)(c2sc(-c3cncc(-c4cnco4)c3)cc2F)CS1(=O)=O [Example 21]
Ki [1]: 18.4 nM
Ki (human autoBACE-2): 16 nM

CN1C(=N)N[C@](C)(c2cc(-c3cncc(-c4cnco4)c3)cs2)CS1(=O)=O [Example 22]
Ki [1]: 85.9 nM
Ki (human autoBACE-2): 98 nM

CN1C(=N)N[C@](C)(c2cc(-c3cc(F)cc(-c4cnco4)c3)cs2)CS1(=O)=O [Example 24]
Ki [1]: 81 nM
Ki (human autoBACE-2): 18 nM

CN1C(=N)N[C@](C)(c2ncc(-c3cccc(-c4ncco4)c3)s2)CS1(=O)=O [Example 26]
Ki [1]: 43.6 nM
Ki (human autoBACE-2): 5.7 nM

CN1C(=N)N[C@](C)(c2ncc(-c3cccc(-c4nnco4)c3)s2)CS1(=O)=O [Example 27]
Ki [1]: 13.8 nM
Ki (human autoBACE-2): 152 nM

CN1C(=N)N[C@](C)(c2sc(-c3cc(F)cc(-c4nnco4)c3)cc2Cl)CS1(=O)=O [Example 28]
Ki [1]: 0.5 nM
Ki (human autoBACE-2): 0.28 nM

CN1C(=N)N[C@](C)(c2sc(-c3cc(F)cc(-c4nnco4)c3)cc2F)CS1(=O)=O [Example 29]
Ki [1]: 1.2 nM
Ki (human autoBACE-2): 1.3 nM

CN1C(=N)N[C@](C)(c2cc(-c3cc(F)cc(-c4nnco4)c3)ccc2F)CS1(=O)=O [Example 30]
Ki [1]: 869 nM
Ki (human autoBACE-2): 235 nM

CN1C(=N)N[C@](C)(c2sc(-c3cc(-c4nnco4)ccc3F)cc2Cl)CS1(=O)=O [Example 31]
Ki [1]: 1.7 nM
Ki (human autoBACE-2): 4.2 nM

CN1C(=N)N[C@](C)(c2sc(-c3cc(-c4nnco4)ccc3F)cc2F)CS1(=O)=O [Example 32]
Ki [1]: 1.1 nM
Ki (human autoBACE-2): 3.9 nM

CN1C(=N)N[C@](C)(c2sc(-c3ccc(F)c(-c4nnco4)c3)cc2Cl)CS1(=O)=O [Example 33]
Ki [1]: 5.5 nM
Ki (human autoBACE-2): 10 nM

CN1C(=N)N[C@](C)(c2sc(-c3ccc(F)c(-c4nnco4)c3)cc2F)CS1(=O)=O [Example 34]
Ki [1]: 6.7 nM
Ki (human autoBACE-2): 11 nM

CN1C(=N)N[C@](C)(c2sc(-c3cccc(-c4nnco4)c3F)cc2Cl)CS1(=O)=O [Example 35]
Ki [1]: 60.7 nM
Ki (human autoBACE-2): 30 nM

CN1C(=N)N[C@](C)(c2sc(-c3cccc(-c4nnco4)c3F)cc2F)CS1(=O)=O [Example 36]
Ki [1]: 1150 nM
Ki (human autoBACE-2): 247 nM

Cc1noc(-c2cccc(-c3cc(Cl)c([C@]4(C)CS(=O)(=O)N(C)C(=N)N4)s3)c2)n1 [Example 37]
Ki [1]: 25.9 nM
Ki (human autoBACE-2): 4.6 nM

CN1C(=N)N[C@](C)(c2sc(-c3cccc(-c4nc(C5CC5)no4)c3)cc2Cl)CS1(=O)=O [Example 39]
Ki [1]: 419 nM
Ki (human autoBACE-2): 9.9 nM

CN1C(=N)N[C@](C)(c2sc(-c3cccc(-c4nc(C5CC5)no4)c3)cc2F)CS1(=O)=O [Example 40]
Ki [1]: 623 nM
Ki (human autoBACE-2): 9.5 nM

CN1C(=N)N[C@](C)(c2cc(-c3cc(F)cc(-c4nnco4)c3)cs2)CS1(=O)=O [Example 43]
Ki [1]: 8.8 nM
Ki (human autoBACE-2): 6.5 nM

CN1C(=N)N[C@](C)(c2sc(-c3cccc(-c4noc(C5CC5)n4)c3)cc2F)CS1(=O)=O [Example 45]
Ki [1]: 323 nM
Ki (human autoBACE-2): 3 nM

CN1C(=N)N[C@](C)(c2sc(-c3cccc(-c4ncno4)c3)cc2F)CS1(=O)=O [Example 48]
Ki [1]: 0.87 nM
Ki (human autoBACE-2): 0.63 nM

Cc1noc(-c2cc(-c3cc(Cl)c([C@]4(C)CS(=O)(=O)N(C)C(=N)N4)s3)ccn2)n1 [Example 49]
Ki [1]: 18.7 nM
Ki (human autoBACE-2): 1.1 nM

Cc1noc(-c2cc(-c3cc(F)c([C@]4(C)CS(=O)(=O)N(C)C(=N)N4)s3)ccn2)n1 [Example 50]
Ki [1]: 56.3 nM
Ki (human autoBACE-2): 2.3 nM

CN1C(=N)N[C@](C)(c2sc(-c3ccnc(-c4nc(C5CC5)no4)c3)cc2Cl)CS1(=O)=O [Example 51]
Ki [1]: 127 nM
Ki (human autoBACE-2): 2.5 nM

CN1C(=N)N[C@](C)(c2sc(-c3ccnc(-c4nc(C5CC5)no4)c3)cc2F)CS1(=O)=O [Example 52]
Ki [1]: 498 nM
Ki (human autoBACE-2): 17 nM

Cc1nnc(-c2cccc(-c3cc(Cl)c([C@]4(C)CS(=O)(=O)N(C)C(=N)N4)s3)c2)o1 [Example 53]
Ki [1]: 129 nM

CN1C(=N)N[C@](C)(c2sc(-c3ccnc(-c4ccccc4)c3)cc2F)CS1(=O)=O [Example 54]
Ki [1]: 132 nM
Ki (human autoBACE-2): 12 nM

CN1C(=N)N[C@](C)(c2sc(-c3ccnc(-c4cncnc4)c3)cc2F)CS1(=O)=O [Example 55]
Ki [1]: 1250 nM
Ki (human autoBACE-2): 212 nM

CN1C(=N)N[C@](C)(c2sc(-c3ccnc(-c4cnco4)c3)cc2F)CS1(=O)=O [Example 56]
Ki [1]: 23.5 nM
Ki (human autoBACE-2): 20 nM

CN1C(=N)N[C@](C)(c2sc(-c3cncc(-c4nnc(C5CC5)o4)c3)cc2Cl)CS1(=O)=O [Example 57]
Ki [1]: 566 nM
Ki (human autoBACE-2): 44 nM

CN1C(=N)N[C@](C)(c2sc(-c3cc(-c4nnco4)ncc3F)cc2Cl)CS1(=O)=O [Example 58]
Ki [1]: 68.3 nM
Ki (human autoBACE-2): 66 nM

CN1C(=N)N[C@](C)(c2sc(-c3cc(-c4nnco4)ncc3F)cc2F)CS1(=O)=O [Example 59]
Ki [1]: 107 nM
Ki (human autoBACE-2): 92 nM

CN1C(=N)N[C@](C)(c2sc(-c3cccc(-n4cccn4)c3)cc2Cl)CS1(=O)=O [Example 60]
Ki [1]: 57 nM
Ki (human autoBACE-2): 1.6 nM

CN1C(=N)N[C@](C)(c2sc(-c3cccc(N4CCS(=O)(=O)CC4)c3)cc2Cl)CS1(=O)=O [Example 61]
Ki [1]: 693 nM
Ki (human autoBACE-2): 42 nM

CN1C(=N)N[C@](C)(c2sc(-c3cccc(-c4ccccc4)c3)cc2Cl)CS1(=O)=O [Example 62]
Ki [1]: 161 nM
Ki (human autoBACE-2): 1.6 nM

CN1C(=N)N[C@](C)(c2sc(-c3cccc(-n4nccn4)c3)cc2Cl)CS1(=O)=O [Example 63]
Ki [1]: 30.3 nM
Ki (human autoBACE-2): 4.7 nM

CN1C(=N)N[C@](C)(c2sc(-c3ccc(-c4cccnc4)cc3)cc2Cl)CS1(=O)=O [Example 64]
Ki [1]: 2100 nM
Ki (human autoBACE-2): 1040 nM

CN1C(=N)N[C@](C)(c2sc(-c3ccc(-c4ccccn4)cc3)cc2Cl)CS1(=O)=O [Example 65]
Ki [1]: 3520 nM
Ki (human autoBACE-2): 1610 nM

CN1C(=N)N[C@](C)(c2sc(-c3ccc(N4CCOCC4)nc3)cc2Cl)CS1(=O)=O [Example 66]
Ki [1]: 5900 nM
Ki (human autoBACE-2): 1800 nM

CN1C(=N)N[C@](C)(c2sc(-c3ccc(-n4nccn4)cc3)cc2Cl)CS1(=O)=O [Example 67]
Ki [1]: 2260 nM
Ki (human autoBACE-2): 555 nM

CN1C(=N)N[C@](C)(c2sc(-c3cccc(-n4ccnc4)n3)cc2Cl)CS1(=O)=O [Example 68]
Ki [1]: 429 nM
Ki (human autoBACE-2): 77 nM

CN1C(=N)N[C@](C)(c2sc(-c3ccc(-c4ncco4)cc3)cc2Cl)CS1(=O)=O [Example 69]
Ki [1]: 4230 nM
Ki (human autoBACE-2): 337 nM

CN1C(=N)N[C@](C)(c2sc(-c3ccc(-c4nccs4)cc3)cc2Cl)CS1(=O)=O [Example 70]
Ki [1]: 827 nM
Ki (human autoBACE-2): 174 nM

Cc1nonc1N1CCN(c2nccc3c(Cl)c([C@]4(C)CS(=O)(=O)N(C)C(=N)N4)sc23)CC1 [Example 120]
Ki (human autoBACE-2): 96 nM
